# Assay results: PubChem BioAssay (NCI)
#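 A five-concentration, 48-hour dose response in 96-well plates underlies each endpoint, interpolated linearly between surrounding concentrations. TGI is the concentration that stops growth completely.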
# Columns and labels:
# Assay in all cases: NCI anticancer screen, dose series, 48 h
# NCI-H522 lung = tested on: NCI-H522 lung
# A498 renal = tested on: A498 renal
# UACC-257 melanoma = tested on: UACC-257 melanoma
# UO-31 renal = tested on: UO-31 renal
# T-47D breast = tested on: T-47D breast
# OVCAR-3 ovarian = tested on: OVCAR-3 ovarian
# OVCAR-4 ovarian = tested on: OVCAR-4 ovarian
# ACHN renal = tested on: ACHN renal
# MDA-N = tested on: MDA-N
# COLO 205 colon = tested on: COLO 205 colon
SMILES,TGI (NCI-H522 lung),TGI (A498 renal),TGI (UACC-257 melanoma),TGI (UO-31 renal),TGI (T-47D breast),TGI (OVCAR-3 ovarian),TGI (OVCAR-4 ovarian),TGI (ACHN renal),TGI (MDA-N),TGI (COLO 205 colon)
Cc1nc2ccc(Cl)cc2c2c1CCN2c1ccccc1,28.1 µM,34.3 µM,29.1 µM,23.8 µM,36.3 µM,44.1 µM,> 100 µM,62.4 µM,10.1 µM,18.1 µM
O=C(c1ccco1)N(C(=S)OC12CC3CC(CC(C3)C1)C2)c1ccccc1,51.8 µM,84.6 µM,> 100 µM,98.7 µM,> 100 µM,77.4 µM,> 100 µM,83.6 µM,83.9 µM,32.4 µM
N#Cc1nc(C#N)n(C(=O)c2ccccc2)c1NC(=O)c1ccccc1,> 100 µM,> 100 µM,> 100 µM,> 100 µM,> 100 µM,> 100 µM,> 100 µM,> 100 µM,> 100 µM,> 100 µM
Nc1nc(Cl)cc(NCC2(O)CCCC2)n1,> 100 µM,> 100 µM,> 100 µM,> 100 µM,> 100 µM,> 100 µM,> 100 µM,> 100 µM,> 100 µM,> 100 µM
O=C1CC(n2cccc2)c2c(Br)sc(Br)c21 (stereo not given),3.27 µM,56.5 µM,30.9 µM,5.66 µM,46.3 µM,33.2 µM,33.4 µM,31.8 µM,31.6 µM,30.7 µM
O=[N+]([O-])c1ccc(C(Nc2ccccc2)c2ccc3cccnc3c2O)cc1 (stereo not given),28.6 µM,> 100 µM,42.8 µM,32.3 µM,44.4 µM,33.6 µM,47.7 µM,> 100 µM,> 100 µM,45.6 µM
COC(=O)CCCC(=O)NC1=C(NCc2ccccc2)C(=O)c2ccccc2C1=O,> 100 µM,> 100 µM,89.7 µM,> 100 µM,> 100 µM,90.6 µM,> 100 µM,> 100 µM,> 100 µM,> 100 µM
O=C(/C=C/c1cccs1)c1ccccc1Cl,15 µM,24 µM,34.2 µM,17.2 µM,22.8 µM,28.2 µM,26.8 µM,29.4 µM,33.9 µM,38.6 µM
NCCOCC(N)C(=O)O (stereo not given),> 100 µM,> 100 µM,> 100 µM,> 100 µM,> 100 µM,> 100 µM,> 100 µM,> 100 µM,> 100 µM,> 100 µM
NC1=NCC(CN2CCCC2)O1 (stereo not given),> 100 µM,> 100 µM,> 100 µM,> 100 µM,> 100 µM,> 100 µM,> 100 µM,> 100 µM,> 100 µM,> 100 µM
CC(C)C1(O)C(=O)N(c2c(F)c(F)c(F)c(F)c2F)C(=S)N1CCSc1ccccc1 (stereo not given),30.5 µM,29.8 µM,32.4 µM,28.9 µM,33.6 µM,30.1 µM,29.1 µM,31.3 µM,31.3 µM,32.9 µM
O=c1cc(NCc2ccncc2)[nH]c(=O)[nH]1,> 100 µM,> 100 µM,> 100 µM,> 100 µM,> 100 µM,> 100 µM,> 100 µM,> 100 µM,> 100 µM,> 100 µM
CO[C@H]1C[C@H](O[C@H]2CC[C@]3(C=O)[C@H]4CC[C@]5(C)[C@@H](C6=CC(=O)OC6)CC[C@]5(O)[C@@H]4CC[C@]3(O)C2)O[C@H](C)[C@H]1O,0.499 µM,1.34 µM,1.43 µM,2.53 µM,5.31 µM,0.556 µM,0.341 µM,1.92 µM,1.87 µM,1.83 µM
CC1CC/C(=C\c2ccc(Cl)cc2)c2nc(N)c(C#N)c(-c3ccc(Cl)cc3)c21 (stereo not given),> 100 µM,72.4 µM,> 100 µM,> 100 µM,> 100 µM,> 100 µM,> 100 µM,> 100 µM,> 100 µM,> 100 µM
CCOC(=O)C1CCCCN1CCc1c[nH]c2ccccc12 (stereo not given),> 100 µM,> 100 µM,> 100 µM,> 100 µM,97.1 µM,> 100 µM,> 100 µM,> 100 µM,> 100 µM,> 100 µM
Cc1ccc(S(=O)(=O)n2cc(C#N)c(C#N)c2)cc1,40 µM,71.9 µM,> 100 µM,72.2 µM,72.4 µM,46.2 µM,> 100 µM,40.7 µM,70.7 µM,68.2 µM
COC(=O)c1c(C)nc(C)c(NO)c1-c1ccccc1C(F)(F)F,33.1 µM,> 100 µM,42.8 µM,74.2 µM,66.1 µM,30.3 µM,39.2 µM,71.6 µM,30.5 µM,70.2 µM
c1ccc(-c2nnn(CCN3CCCCC3)n2)cc1,> 100 µM,> 100 µM,> 100 µM,> 100 µM,> 100 µM,> 100 µM,> 100 µM,> 100 µM,> 100 µM,> 100 µM
CC(C)OC1OC(CO)C(O)CC1n1cc(F)c(=O)[nH]c1=O (stereo not given),37.8 µM,> 100 µM,> 100 µM,> 100 µM,> 100 µM,> 100 µM,> 100 µM,> 100 µM,> 100 µM,> 100 µM
CN(C)C(=S)Oc1ccc2ccc(=O)oc2c1,> 100 µM,> 100 µM,> 100 µM,> 100 µM,> 100 µM,> 100 µM,> 100 µM,> 100 µM,> 100 µM,> 100 µM
Cc1cc2c(c(=O)n1C)SCC2,> 100 µM,> 100 µM,> 100 µM,> 100 µM,> 100 µM,> 100 µM,> 100 µM,> 100 µM,> 100 µM,> 100 µM
NCCC1CN(C(=O)OCc2ccccc2)c2ccccc21 (stereo not given),28.8 µM,> 52.2 µM,37.8 µM,27.3 µM,28 µM,45.6 µM,> 55.8 µM,> 54.6 µM,26.6 µM,31.5 µM
C(/Cc1ccc2c(c1)OCO2)=N\NC1=NCCCN1,> 100 µM,72.8 µM,> 100 µM,> 100 µM,> 100 µM,> 100 µM,> 100 µM,> 100 µM,> 100 µM,> 100 µM
NC(=O)Cc1nc2c(=O)[nH]cnc2n1C1OC(CO)C(O)C1O (stereo not given),> 100 µM,> 100 µM,> 100 µM,> 100 µM,> 100 µM,> 100 µM,> 100 µM,> 100 µM,> 100 µM,> 100 µM
COc1ccc(-c2cc(C(O)C3CCCCN3)c3ccccc3n2)cc1 (stereo not given),22.4 µM,25.4 µM,4.48 µM,8.54 µM,14.1 µM,27.8 µM,27.5 µM,24.4 µM,16.7 µM,3.54 µM
Cc1ccc(-c2n[nH]c(=O)n2/N=C\c2ccccc2)cc1,> 100 µM,> 100 µM,> 100 µM,> 100 µM,> 100 µM,> 100 µM,> 100 µM,> 100 µM,> 93.9 µM,> 100 µM
COC(=O)[C@@H]1CN(C(=O)c2ccccc2)C(=O)N1C(=O)OCc1ccccc1,> 100 µM,> 100 µM,> 100 µM,> 100 µM,> 100 µM,> 100 µM,> 100 µM,> 100 µM,> 100 µM,> 100 µM
